This test concerns THP1 luciferase reporter cells. The experiment in a line: cells. It counts as cell-based.
Where [1] appears, read: 16 hours, read-out: THP1-ISG-Luc with PFO, EC50.
The mark [2] stands for this setting: 16 hours, read-out: THP-ISG-Luc without PFO, EC50.
Setting [3] is: Homo sapiens, THP-1, 16 h, read-out: THP1-ISG-Luc with PFO, EC50.
Setting [4] is: Homo sapiens, THP-1, 16 h, read-out: THP-ISG-Luc without PFO, EC50.

Read-outs that look alike come from different tables or passages of the source. Some results are limits rather than exact numbers.

Consider `Nc1nc2c(ncn2[C@@H]2O[C@@H]3COP(=O)(S)OC4C(O)[C@H](n5ncc6c(N)ncnc65)O[C@@H]4COP(=O)(S)OC2C3O)c(=O)[nH]1` (single isomer, unassigned) [EA4], for which the EC50 runs as follows: under setting [1], 100 to 1000 nM; under setting [2], < 30000 nM.

As to `Nc1nc2c(ncn2[C@@H]2O[C@@H]3COP(=O)(S)OC4C(O)[C@H](n5ncc6c(N)ncnc65)O[C@@H]4COP(=O)(S)OC2C3O)c(=O)[nH]1` (single isomer, unassigned) [EA5], the EC50 was > 1000 nM under setting [1] and > 100000 nM under setting [2].

As to `Nc1nc2c(ccn2[C@@H]2O[C@@H]3COP(=O)(S)OC4C(O)[C@H](n5cnc6c(N)ncnc65)O[C@@H]4COP(=O)(S)OC2C3O)c(=O)[nH]1` (single isomer, unassigned) [EA6], the EC50 runs as follows: under setting [1], > 1000 nM; under setting [2], > 100000 nM.

As for `Nc1nc2c(ccn2[C@@H]2O[C@@H]3COP(=O)(S)O[C@@H]4C(O)[C@H](n5cnc6c(N)ncnc65)O[C@@H]4COP(=O)(S)O[C@H]2C3O)c(=O)[nH]1` (single isomer, unassigned) [EA7], the EC50 is 100 to 1000 nM under setting [3] and < 30000 nM under setting [4].

As to `Nc1nc2c(ccn2[C@@H]2O[C@@H]3COP(=O)(S)OC4C(O)[C@H](n5cnc6c(N)ncnc65)O[C@@H]4COP(=O)(S)OC2C3O)c(=O)[nH]1` (single isomer, unassigned) [EA8], the EC50 is 100 to 1000 nM under setting [1] and < 30000 nM under setting [2].

As for `BP1(=O)OC[C@H]2O[C@@H](n3cnc4c(N)ncnc43)C(O)C2OP(=O)(O)OC[C@H]2O[C@@H](n3cnc4c(=O)[nH]c(N)nc43)C(O1)C2O` (single isomer, unassigned) [EA9], the EC50 by setting is: under setting [3], < 100 nM; under setting [4], < 30000 nM.

Take `Nc1nc2c(ccn2[C@@H]2O[C@@H]3COP(=O)(O)OC4C(O)[C@H](n5ccc6c(N)ncnc65)O[C@@H]4COP(=O)(S)OC2C3O)c(=O)[nH]1` (single isomer, unassigned) [EB1]: the EC50 by setting is: under setting [1], > 1000 nM; under setting [4], 30000 to 100000 nM.

As for `Nc1nc2c(ccn2[C@@H]2O[C@@H]3COP(=O)(O)OC4C(O)[C@H](n5ccc6c(N)ncnc65)O[C@@H]4COP(=O)(S)OC2C3O)c(=O)[nH]1` (single isomer, unassigned) [EB2], the concentration for a half-maximal effect (EC50) reads like this: under setting [1], < 100 nM; under setting [2], < 30000 nM.

With `Nc1nc2c(ccn2[C@@H]2O[C@@H]3COP(=O)(O)OC4C(O)[C@H](n5cnc6c(N)ncnc65)O[C@@H]4COP(=O)(S)OC2C3O)c(=O)[nH]1` (single isomer, unassigned) [EB4], the EC50 under setting [3] was > 1000 nM and the EC50 under setting [4] is 30000 to 100000 nM.

Turning to `Nc1nc2c(cnn2[C@@H]2O[C@@H]3COP(=O)(S)OC4C(O)[C@H](n5cnc6c(N)ncnc65)O[C@@H]4COP(=O)(S)OC2C3O)c(=O)[nH]1` (single isomer, unassigned) [EB7], the EC50 under setting [3] was > 1000 nM and the EC50 under setting [4] was > 100000 nM.

With `Nc1nc2c(ncn2[C@@H]2O[C@@H]3COP(=O)(O)OC4C(O)[C@H](n5ccc6c(N)ncnc65)O[C@@H]4COP(=O)(S)OC2C3OCC(F)(F)F)c(=O)[nH]1` (single isomer, unassigned) [EC2], the EC50 under setting [3] was 100 to 1000 nM and the EC50 under setting [4] lay in the range of 30000 to 100000 nM.

In the case of `Nc1nc2c(ccn2[C@@H]2O[C@@H]3COP(=O)(S)OC4C(O)[C@@H](COP(=O)(O)OC3C2O)O[C@H]4n2ccc3c(=O)[nH]c(N)nc32)c(=O)[nH]1` (single isomer, unassigned) [EC4], the EC50 was > 1000 nM under setting [1] and > 100000 nM under setting [2].

As to `Nc1nc2c(ccn2[C@@H]2O[C@@H]3COP(=O)(S)OC4C(O)[C@@H](COP(=O)(O)OC3C2O)O[C@H]4n2ccc3c(=O)[nH]c(N)nc32)c(=O)[nH]1` (single isomer, unassigned) [EC5], the EC50 reads like this: under setting [1], 100 to 1000 nM; under setting [2], 30000 to 100000 nM.

Turning to `Nc1nc2c(ccn2[C@@H]2O[C@@H]3COP(=O)(S)OC4C(O)[C@@H](COP(=O)(O)OC3C2O)O[C@H]4n2ccc3c(N)ncnc32)c(=O)[nH]1` (single isomer, unassigned) [EC8], the concentration for a half-maximal effect (EC50) under setting [3] is > 1000 nM and the EC50 under setting [4] was > 100000 nM.

Regarding `Nc1nc2c(ccn2[C@@H]2O[C@@H]3COP(=O)(S)OC4C(O)[C@@H](COP(=O)(O)OC3C2O)O[C@H]4n2ccc3c(N)ncnc32)c(=O)[nH]1` (single isomer, unassigned) [EC9], the EC50 runs as follows: under setting [1], > 1000 nM; under setting [2], > 100000 nM.

As for `Nc1nc2c(ccn2[C@@H]2O[C@@H]3COP(=O)(O)OC4C(O)[C@@H](COP(=O)(S)OC2C3O)O[C@H]4n2cnc3c(N)ncnc32)c(=O)[nH]1` (single isomer, unassigned) [EC14], the 50% effective concentration (EC50) is, setting by setting: under setting [1], > 1000 nM; under setting [2], > 100000 nM.

With `Nc1nc2c(ccn2[C@@H]2O[C@@H]3COP(=O)(O)OC4C(O)[C@@H](COP(=O)(S)OC2C3O)O[C@H]4n2cnc3c(N)ncnc32)c(=O)[nH]1` (single isomer, unassigned) [EC15], the EC50 is, setting by setting: under setting [1], 100 to 1000 nM; under setting [2], < 30000 nM.

As to `Nc1nc2c(ncn2[C@@H]2O[C@@H]3COP(=O)(O)OC4C[C@H](n5ccc6ccccc65)O[C@@H]4COP(=O)(S)OC2C3O)c(=O)[nH]1` (single isomer, unassigned) [EC17], the concentration giving a half-maximal response (EC50) under setting [3] was > 1000 nM and the EC50 under setting [4] was > 100000 nM.

Consider `Nc1nc2c(ncn2[C@@H]2O[C@@H]3COP(=O)(O)OC4C[C@H](n5ccc6ccccc65)O[C@@H]4COP(=O)(S)OC2C3O)c(=O)[nH]1` (single isomer, unassigned) [EC18], for which the EC50 under setting [1] was > 1000 nM and the EC50 under setting [2] was > 100000 nM.

Regarding `Nc1nc2c(ncn2[C@@H]2O[C@@H]3COP(=O)(O)OC4C[C@H](c5ccc6ccc7cccc8ccc5c6c78)O[C@@H]4COP(=O)(S)OC2C3O)c(=O)[nH]1` (single isomer, unassigned) [EC20], the concentration giving a half-maximal response (EC50) under setting [3] is > 1000 nM and the EC50 under setting [4] was > 100000 nM.

Turning to `Nc1nc2c(ncn2[C@@H]2O[C@@H]3COP(=O)(O)OC4C[C@H](c5ccc6ccc7cccc8ccc5c6c78)O[C@@H]4COP(=O)(S)OC2C3O)c(=O)[nH]1` (single isomer, unassigned) [EC21], the EC50 was > 1000 nM under setting [1] and > 100000 nM under setting [2].

As to `Nc1nc2c(ncn2[C@@H]2O[C@@H]3COP(=O)(S)OC4C(O)[C@H](n5cnc6c(N)ncnc65)O[C@@H]4COP(=O)(O)OC2C3O)c(=O)[nH]1` (single isomer, unassigned) [Example E6], the EC50 under setting [3] was < 100 nM and the EC50 under setting [4] is < 30000 nM.

For `Nc1nc2c(ncn2[C@@H]2O[C@@H]3COP(=O)(S)OC4C(O)[C@H](n5cnc6c(N)ncnc65)O[C@@H]4COP(=O)(O)OC2C3O)c(=O)[nH]1` (single isomer, unassigned) [Example E7], the EC50 under setting [1] was < 100 nM and the EC50 under setting [2] was < 30000 nM.

Regarding `Nc1nc2c(ncn2[C@@H]2O[C@@H]3COP(=O)(O)OC4C(O)[C@H](n5cnc6c(N)ncnc65)O[C@@H]4COP(=O)(S)OC2C3O)c(=O)[nH]1` (single isomer, unassigned) [Example E8], the EC50 is, setting by setting: under setting [2], > 100000 nM; under setting [3], 100 to 1000 nM.

As for `Nc1nc2c(ncn2[C@@H]2O[C@@H]3COP(=O)(O)OC4C(O)[C@H](n5cnc6c(N)ncnc65)O[C@@H]4COP(=O)(S)OC2C3O)c(=O)[nH]1` (single isomer, unassigned) [Example E9], the EC50 is < 100 nM under setting [1] and < 30000 nM under setting [2].

On to `Nc1nc2c(ncn2[C@@H]2O[C@@H]3COP(=O)(S)OC4C(O)[C@H](n5cnc6c(N)ncnc65)O[C@@H]4COP(=O)(S)OC2C3O)c(=O)[nH]1` (single isomer, unassigned) [Example E12], for which the EC50 by setting is: under setting [2], < 30000 nM; under setting [3], < 100 nM.

Consider `Nc1nc2c(ncn2[C@@H]2O[C@@H]3COP(=O)(S)OC4C(O)[C@H](n5cnc6c(N)ncnc65)O[C@@H]4COP(=O)(S)OC2C3O)c(=O)[nH]1` (single isomer, unassigned) [Example E13], for which the EC50 was 100 to 1000 nM under setting [1] and > 100000 nM under setting [2].

For the compound `Nc1nc2c(ncn2[C@@H]2O[C@@H]3COP(=O)(S)OC4C(O)[C@H](n5cnc6c(N)ncnc65)O[C@@H]4COP(=O)(S)OC2C3O)c(=O)[nH]1` (single isomer, unassigned) [Example E14], the EC50 is, setting by setting: under setting [1], 100 to 1000 nM; under setting [2], > 100000 nM.

Regarding `Nc1nc2c(ncn2[C@@H]2O[C@@H]3COP(=O)(S)O[C@@H]4C(O)[C@H](n5ccc6c(N)ncnc65)O[C@@H]4COP(=O)(S)O[C@H]2C3O)c(=O)[nH]1` (single isomer, unassigned) [Example E15], the EC50 runs as follows: under setting [3], > 1000 nM; under setting [4], > 100000 nM.

Regarding `Nc1nc2c(ncn2[C@@H]2O[C@@H]3COP(=O)(S)OC4C(O)[C@H](n5ccc6c(N)ncnc65)O[C@@H]4COP(=O)(S)OC2C3O)c(=O)[nH]1` (single isomer, unassigned) [Example E16], the EC50 reads like this: under setting [1], < 100 nM; under setting [2], < 30000 nM.

For the compound `Nc1nc2c(ncn2[C@@H]2O[C@@H]3COP(=O)(S)OC4C(O)[C@H](n5ccc6c(N)ncnc65)O[C@@H]4COP(=O)(S)OC2C3O)c(=O)[nH]1` (single isomer, unassigned) [Example E17], the concentration giving a half-maximal response (EC50) reads like this: under setting [1], > 1000 nM; under setting [2], > 100000 nM.

In the case of `Nc1nc2c(ncn2[C@@H]2O[C@@H]3COP(=O)(S)OC4C(O)[C@H](n5ccc6c(N)ncnc65)O[C@@H]4COP(=O)(S)OC2C3O)c(=O)[nH]1` (single isomer, unassigned) [Example E18], the half-maximal effective concentration (EC50) was < 100 nM under setting [1] and < 30000 nM under setting [2].

Regarding `Nc1nc2c(ccn2[C@@H]2O[C@@H]3COP(=O)(S)OC4C(O)[C@H](n5ccc6c(N)ncnc65)O[C@@H]4COP(=O)(S)OC2C3O)c(=O)[nH]1` (single isomer, unassigned) [Example E20], the EC50 was 100 to 1000 nM under setting [3] and < 30000 nM under setting [4].

For `Nc1nc2c(ccn2[C@@H]2O[C@@H]3COP(=O)(S)OC4C(O)[C@H](n5ccc6c(N)ncnc65)O[C@@H]4COP(=O)(S)OC2C3O)c(=O)[nH]1` (single isomer, unassigned) [Example E21], the EC50 reads like this: under setting [1], 100 to 1000 nM; under setting [2], < 30000 nM.

In the case of `Nc1nc2c(ccn2[C@@H]2O[C@@H]3COP(=O)(S)OC4C(O)[C@H](n5ccc6c(N)ncnc65)O[C@@H]4COP(=O)(S)OC2C3O)c(=O)[nH]1` (single isomer, unassigned) [Example E22], the EC50 is, setting by setting: under setting [1], 100 to 1000 nM; under setting [2], < 30000 nM.

A word on the EC50: it is the concentration needed to bring the measured effect to its halfway point.

(Values after US11299512B2 (priority 2016, dated 2022).)
